Patent publication US7608640B2, “Glycine betaine and its use” (priority 2001, dated 2009)

Tests used:
[1] = test system: arterial thrombosis induced by laser beam in the mesenteric microcirculation of the rat; experiment: Laser-induced thrombosis in the mesenteric microcirculation; type: in vivo
Text: A/Principle of Laser-induced Thrombosis (Seiffge D. et al., 1989; Weichter W. et al., 1983).
In this model, lesion of the vascular wall is induced by a laser beam. This beam causes a limited lesion of the vascular endothelium (only 1 to 2 cells are destroyed). This laying bare of the sub-endothelium, which is a thrombogenetic surface, results in the adherence of platelets via […]. This adherence of platelets is followed by the activation thereof. They form pseudopods and secrete the content of their granules. This activation results in the appearance of glycoproteins IIb-IIIa which are necessary for the aggregation of the platelets between them. This lesion is induced in the mesenteric microcirculation of the rat. It is immediately followed by the formation of a thrombus (in a few seconds). This thrombus, which rapidly enlarges under the influence of the flow of blood, embolises before being formed again.
By this manes, the assessment of the effect of glycine betaine was conducted pharmacologically in conjunction with the study of two active molecules used as a reference; namely acetylsalicylic acid and heparin (of low molecular weight). The assessment also involved the activity of glycine betaine in relation to the prothrombotic effects induced by contrasting products.
Male Wistar rats were used for these tests. They weighed between 200 and 250 grams. After an 8-day stabilisation period, the rats were subjected to fasting for 12 hours. They were then anaesthetised, glycine betaine was administered subcutaneously, and the mesentery (laser) or vena cava (stasis) was opened at the end of the experiments.

platelet aggregation = experiment: Whole blood platelet aggregation ex vivo (aggregometer); type: in vivo, rat; conditions: after laser firings
Experimental: The aggregation is made in accordance to the methods of Cardinal & Flower. Pharmacol. Method. 1980, and to American Journal of Clinical Pathology, 1989; 92: 676-679, Sureney. J D. Whole Blood aggregometry. After a keeping period of 8 days, the rats are subjected to a fasting for 12 hours. […] The rats are then anaesthetised with sodium Thiopental administered at a dose of 200 mg/Kg and the blood samples are taken by intracardiac puncture on a trisodium citrate solution (1 volume of solution at 3.8% citrate for 9 volumes of blood).

blood cells = experiment: Blood cell counts; type: in vivo, rat
bleeding time in rats = experiment: Induced haemorrhagic (bleeding) time, tail cut; type: in vivo, rat
Experimental: Induced Haemorrahgic Time IHT
(E. Dejana. Bleeding time in rats. Thrombosis. Rech. 1982) Blood samples are made before the test. The tail of anaesthetised rat, is dipped for 5 minutes in a water bath at 37° C. so as to provoke a dilatation of the peripheral vessels which are removed and cut at the end, the chronometer being started. The IHT is defined as being the time period comprised between the cutting of end tail and the end of the haemorrhage or bleeding. The end of haemorrhage is defined as the time where the last drop of blood is removed from the tail and no other drop is seen for 180 seconds. […]

coagulation factors = experiment: Biological balance (Quick time, ACT, fibrinogen, α2AP, AT III); type: in vivo, rat
[2] = rat, after laser firings, glycine betaine 5 mg/kg, acetylsalicylic acid 100 mg/kg, heparin 2 mg/kg
[3] = rat, glycine betaine 5 mg/kg, acetylsalicylic acid 100 mg/kg, heparin 2 mg/kg
[4] = after laser firings and administration of contrasting products, alone or with glycine betaine 5 mg/kg
[5] = contrasting products alone or with glycine betaine 5 mg/kg

With CC(=O)Oc1ccccc1C(=O)O [Acetylsalicylic acid] the Duration of embolisation [1, 2] was 0.33 ± 0.58 min, the “Number of emboles or embolies” value [1, 2] was 1 ± 1 and the “Amplitude (platelet aggregation)” value (platelet aggregation; [3]) was 2.33 ± 2.08 ohms. The “Velocity (platelet aggregation)” value (platelet aggregation; [3]) was 2 ± 1 ohms/min, the Number of platelets (blood cells; [3]) was 855.33 ± 63.17 10^9 and the “Number of red corpuscles” value (blood cells; [3]) was 6.15 ± 0.31 10^12. The “Number of white corpuscles” value (blood cells; [3]) was 4.33 ± 1.00 10^9, the Bleeding time (bleeding time in rats; [3]) was 276.67 ± 20.82 s and the “ACT (Activated cephaline time)” value (coagulation factors; [3]) was 27.26 ± 1.1 s. For the same molecule, the “AT III (Antithrombin III)” value (coagulation factors; [3]) was 85.33 ± 3.51%, the Fibrinogen (coagulation factors; [3]) was 2.19 ± 0.33 g/L and the “QT (Quick time)” value (coagulation factors; [3]) was 18.33 ± 2.08 s. The “α2AP (Alpha,2-antiplasmin)” value (coagulation factors; [3]) was 29.36 ± 0.92%.

In the case of C[C@H](O)C(=O)Nc1c(I)c(C(=O)NC(CO)CO)c(I)c(C(=O)NC(CO)CO)c1I [Iopamidol ®, Iopamidol], the Duration of embolisation [1, 4] is reported as 6.33 ± 0.52 min, the Number of emboles [1, 4] is reported as 11.67 ± 0.50 and the “Amplitude (platelet aggregation)” value (platelet aggregation; [5]) is reported as 15 ± 2.64 ohm. The “Velocity (platelet aggregation)” value (platelet aggregation; [5]) was 12.33 ± 0.50 ohm/min, the Number of platelets (blood cells; [5]) was 585.67 ± 23.54 10^9 and the “IBD (induced bleeding time)” value (bleeding time in rats; [5]) was 128 ± 7.64 s. The “ACT (Activated cephaline time)” value (coagulation factors; [5]) was 41.33 ± 0.8 s, the “AT III (Antithrombin III)” value (coagulation factors; [5]) was 70.6 ± 1.51% and the Fibrinogen (coagulation factors; [5]) was 1.5 ± 0.8 g/L. The “QT (Quick time)” value (coagulation factors; [5]) was 28.1 ± 0.75 s and the “α2AP (Alpha,2-antiplasmin)” value (coagulation factors; [5]) was 25.23 ± 0.95%.
